Results as given in patent publication US20120115869A1, “TETRAZOLE DERIVATIVES” (MERCK SERONO S.A., priority 2009, published 2012).

The compounds below were run against T1, CRTH2 (DP2) (Homo sapiens, UniProt Q9Y5Y4) (assay: Radioligand binding Scintillation Proximity Assay ([3H]PGD2, hCRTH2-CHO cell membranes)). Conditions: 1.5 nM [3H]PGD2, hCRTH2-CHO cell membranes, SPA.
T1 construct: host or cells: CHO cells
T1 sequence (Q9Y5Y4 1-395): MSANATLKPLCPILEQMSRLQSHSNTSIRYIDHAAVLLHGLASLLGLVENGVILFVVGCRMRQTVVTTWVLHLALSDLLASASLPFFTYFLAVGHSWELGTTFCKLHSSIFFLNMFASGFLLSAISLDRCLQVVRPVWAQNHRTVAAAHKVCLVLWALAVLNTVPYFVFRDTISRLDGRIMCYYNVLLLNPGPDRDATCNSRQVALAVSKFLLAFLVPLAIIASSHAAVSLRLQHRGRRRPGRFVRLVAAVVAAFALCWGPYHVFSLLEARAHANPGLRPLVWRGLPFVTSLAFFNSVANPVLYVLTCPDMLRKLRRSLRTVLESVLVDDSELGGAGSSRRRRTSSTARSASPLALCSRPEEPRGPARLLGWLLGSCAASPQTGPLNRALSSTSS
Experimental: (§1) Adherent CHO cells expressing hCRTH2 (Euroscreen, Belgium) were cultured in 225 cm^2 cell culture flasks (Corning, USA) in 30 ml of medium. After two rinses of phosphate buffered saline (PBS), cells were harvested in 10 ml of PBS containing 1 mM EDTA, centrifuged at 500×g for 5 min at 4° C. and frozen at −80° C. The pellet was re-suspended in 50 mM Tris-HCl, pH 7.4, 2 mM EDTA, 250 mM Sucrose, containing protease inhibitor cocktail tablets, (Complete EDTA-free, Roche, Germany) and incubated 30 min at 4° C. Cells were disrupted by nitrogen cavitation (Parr Instruments, USA) at 4° C. (800 p.s.i. for 30 min), and centrifuged at 500×g for 10 min at 4° C. Pellet containing nuclei and cellular debris was discarded and supernatant was centrifuged 60 min at 4° C. at 45000×g. Membrane pellet was re-suspended in storage buffer (10 mM HEPES/KOH pH 7.4, 1 mM EDTA, 250 mM sucrose, protease inhibitor cocktail tablets) using Dounce homogenization and frozen in liquid nitrogen, and stored at 80° C.
Non-specific binding was determined in the presence of 10 μM PGD2 (Cayman, USA). Competing Compounds of Formula (I) were diluted in dimethylsulphoxide so that the total volume of dimethylsulfoxide was kept constant at 1% dimethylsulphoxide (Me2SO). Serial dilutions of […] were prepared and 10 μl each of the compounds of Formula (I) stock solutions were added to the binding assay reagents and incubated for 90 min with agitation at room temperature.

SMILES | IC50 [nM]
CCC(=O)N(Cc1cccc(OC)c1)c1cc(F)cc(-c2nnn[nH]2)c1 [Example 39, N-[3-fluoro-5-(1H-tetrazol-5-yl)phenyl]-N-(3-methoxybenzyl)propanamide] | 9.6
CCC(=O)N(Cc1ccc(-c2c(C)cccc2C)cc1)c1cc(F)cc(-c2nnn[nH]2)c1 [Example 100] | 8.3
CCCC#Cc1cccc(CN(C(=O)CC)c2cccc(-c3nnn[nH]3)c2)c1 [Example 49, N-(3-pent-1-yn-1-ylbenzyl)-N-[3-(1H-tetrazol-5-yl)phenyl]propanamide] | 618
CCC(=O)N(Cc1ccc(-c2ccccc2)cc1)c1cccc(-c2nnn[nH]2)c1 [Example 69, N-(biphenyl-4-ylmethyl)-N-[3-(1H-tetrazol-5-yl)phenyl]propanamide] | 506
CCC(=O)N(Cc1c(-c2ccccc2)noc1C)c1cccc(-c2nnn[nH]2)c1 [Example 23, N-[(5-methyl-3-phenylisoxazol-4-yl)methyl]-N-[3-(1H-tetrazol-5-yl)phenyl]propanamide] | 2960
CCC(=O)N(Cc1ccc(-c2ccncc2)cc1)c1cc(F)cc(-c2nnn[nH]2)c1 [Example 89, N-[3-fluoro-5-(1H-tetrazol-5-yl)phenyl]-N-(4-pyridin-4-ylbenzyl)propanamide] | 57
CCC(=O)N(Cc1ccc(-c2cccc(S(=O)(=O)N3CCOCC3)c2)cc1)c1cc(F)cc(-c2nnn[nH]2)c1 [Example 91, N-[3-fluoro-5-(1H-tetrazol-5-yl)phenyl]-N-{[3′-(morpholin-4-ylsulfonyl)biphenyl-4-yl]methyl}propanamide] | 145
CCC(=O)N(Cc1ccc(S(C)(=O)=O)cc1)c1cccc(-c2nnn[nH]2)c1 [Example 65, N-[4-(methylsulfonyl)benzyl]-N-[3-(1H-tetrazol-5-yl)phenyl]propanamide] | 75
CS(=O)(=O)c1ccc(CN(C(=O)c2cccnc2)c2cc(F)cc(-c3nnn[nH]3)c2)cc1 [Example 116, N-[3-fluoro-5-(1H-tetrazol-5-yl)phenyl]-N-[4-(methylsulfonyl)benzyl]nicotinamide] | 4.6
CCCCC(=O)N(Cc1cccs1)c1cccc(-c2nnn[nH]2)c1 [Example 16, N-[3-(1H-tetrazol-5-yl)phenyl]-N-(2-thienylmethyl)pentanamide] | 588
CCCC(=O)N(Cc1ccc2c(c1)OCCO2)c1cc(-c2nnn[nH]2)ccc1F [Example 8, N-(2,3-dihydro-1,4-benzodioxin-6-ylmethyl)-N-[2-fluoro-5-(1H-tetrazol-5-yl)phenyl]butanamide] | 6.3
CCC(=O)N(Cc1ccc(-c2cccnc2)cc1)c1cc(F)cc(-c2nnn[nH]2)c1 [Example 90, N-[3-fluoro-5-(1H-tetrazol-5-yl)phenyl]-N-(4-pyridin-3-ylbenzyl)propanamide] | 140
CCC(=O)N(Cc1ccc(O)cc1)c1cc(F)cc(-c2nnn[nH]2)c1 [Example 114, N-[3-fluoro-5-(1H-tetrazol-5-yl)phenyl]-N-(4-hydroxybenzyl)propanamide] | 25
CCC(=O)N(Cc1ccc(Cl)c(OC(F)(F)F)c1)c1cc(F)cc(-c2nnn[nH]2)c1 [Example 76, N-[4-chloro-3-(trifluoromethoxy)benzyl]-N-[3-fluoro-5-(1H-tetrazol-5-yl)phenyl]propanamide] | 18

The next lines start with the values.

IC50 [nM] | SMILES
1 | CS(=O)(=O)c1ccc(CN(C(=O)Cc2ccccc2)c2cc(F)cc(-c3nnn[nH]3)c2)cc1 [Example 109, N-[3-fluoro-5-(1H-tetrazol-5-yl)phenyl]-N-[4-(methylsulfonyl)benzyl]-2-phenylacetamide]
30 | CCC(=O)N(Cc1cccc(-c2ccn[nH]2)c1)c1cc(F)cc(-c2nnn[nH]2)c1 [Example 115, N-[3-fluoro-5-(1H-tetrazol-5-yl)phenyl]-N-[3-(1H-pyrazol-5-yl)benzyl]propanamide]
8.6 | CCCCC(=O)N(Cc1cc2ccccc2o1)c1cc(-c2nnn[nH]2)ccc1F [Example 12, N-(1-benzofuran-2-ylmethyl)-N-[2-fluoro-5-(1H-tetrazol-5-yl)phenyl]pentanamide]
1300 | CCC(=O)N(Cc1cccc(C#CC(C)(C)C)c1)c1cccc(-c2nnn[nH]2)c1 [Example 50, N-[3-(3,3-dimethylbut-1-yn-1-yl)benzyl]-N-[3-(1H-tetrazol-5-yl)phenyl]propanamide]
973 | CCC(=O)N(Cc1ccc(-c2cc[nH]n2)cc1)c1cccc(-c2nnn[nH]2)c1 [Example 66, N-[4-(1H-pyrazol-3-yl)benzyl]-N-[3-(1H-tetrazol-5-yl)phenyl]propanamide]
49 | CCCCC(=O)N(Cc1ccc2ccccc2c1)c1cccc(-c2nnn[nH]2)c1 [Example 3, N-(2-naphthylmethyl)-N-[3-(1H-tetrazol-5-yl)phenyl]pentanamide]
160 | CCC(=O)N(Cc1ccc(-c2cccc(S(=O)(=O)NCCO)c2)cc1)c1cc(F)cc(-c2nnn[nH]2)c1 [Example 92, N-[3-fluoro-5-(1H-tetrazol-5-yl)phenyl]-N-[(3′-{[(2-hydroxyethyl)amino]sulfonyl}biphenyl-4-yl)methyl]propanamide]
1540 | CCC(=O)N(Cc1ccc(F)cc1)c1cccc(-c2nnn[nH]2)c1 [Example 31, N-(4-fluorobenzyl)-N-[3-(1H-tetrazol-5-yl)phenyl]propanamide]
5.2 | CCC(=O)N(Cc1ccc(-c2sc(C)nc2C)cc1)c1cc(F)cc(-c2nnn[nH]2)c1 [Example 119, N-[4-(2,4-dimethyl-1,3-thiazol-5-yl)benzyl]-N-[3-fluoro-5-(1H-tetrazol-5-yl)phenyl]propanamide]
20 | CS(=O)(=O)c1ccc(CN(C(=O)c2ccncc2)c2cc(F)cc(-c3nnn[nH]3)c2)cc1 [Example 106, N-[3-fluoro-5-(1H-tetrazol-5-yl)phenyl]-N-[4-(methylsulfonyl)benzyl]isonicotinamide]
1140 | CCC(=O)N(Cc1cccc(C#CCOC)c1)c1cccc(-c2nnn[nH]2)c1 [Example 47, N-[3-(3-methoxyprop-1-yn-1-yl)benzyl]-N-[3-(1H-tetrazol-5-yl)phenyl]propanamide]

These compounds were tested against T2, CRTH2 (Homo sapiens, UniProt Q9Y5Y4) (assay: Cellular Dielectric Spectroscopy in CHO-CRTH2 cells). Conditions: agonist activity without PGD2, read-out: EC50(μM) (CDS, partial agonist).
T2 construct: expressed in transfected cells; host or cells: CHO cells
T2 sequence (Q9Y5Y4 1-395): T1 sequence (Q9Y5Y4 1-395)
Type: cell-based
Experimental: Cellular Dielectric Spectroscopy (CDS) is a label-free technology based on the measurement of complex impedance changes (delta Z or dZ). Impedance (Z) is related to the ratio of voltage to current as described by Ohm's law (Z=V/I). In order to measure the changes in impedance that occur in response to receptor stimulation, mammalian cells are seeded onto a custom 96-well microtiter plate that contains electrodes at the bottom of each well Key contributors to the impedance measurements are changes in cell-substrate adherence, changes in cell shape and volume, and changes in cell-cell interactions. These factors individually or collectively affect the flow of current, influencing the magnitude and characteristics of the signal measured. G-protein coupled receptors ligand-induced activity can be measured using this technology and specific G protein coupling can be identified. Activities of reference agonist and antagonist molecules of CRTH2 have been measured using this assay and similar results were obtained compared to different functional assays.
CHO—CRTH2 cells are cultured in HAM's F12 (Lonza, Switzerland) supplemented with 10% foetal calf serum (PAA, Australia) and 400 μg/ml Geneticin. 100000 cells/well are seeded in standard 96 W Microplates (MDS Analytical Technologies) and incubated at 37° C. in 5% CO2 for 24 hours. Cells are washed twice with 135 μl of cell key buffer (Hank's Balanced Salt Solution 1× (HBSS) (Invitrogen) supplemented with 10 mM HEPES pH 7.4 in presence of 1% DMSO). […] Results are expressed as the amplitude between the highest and the lowest signal produced (max-min). Basal and maximum activities are measured, respectively in absence or presence of PGD2 (EC80).

EC50 [µM] | SMILES
0.0012 | CS(=O)(=O)c1ccc(CN(C(=O)Cc2ccccc2)c2cc(F)cc(-c3nnn[nH]3)c2)cc1 [Example 109, N-[3-fluoro-5-(1H-tetrazol-5-yl)phenyl]-N-[4-(methylsulfonyl)benzyl]-2-phenylacetamide]

Same assay, conditions: agonist activity without PGD2, read-out: EMax (CDS, partial agonist)

Emax [%] | SMILES
32 | CS(=O)(=O)c1ccc(CN(C(=O)Cc2ccccc2)c2cc(F)cc(-c3nnn[nH]3)c2)cc1 [Example 109, N-[3-fluoro-5-(1H-tetrazol-5-yl)phenyl]-N-[4-(methylsulfonyl)benzyl]-2-phenylacetamide]

These compounds were tested against T2, CRTH2 (assay: [35S]GTPγS binding assay on CHO-CRTH2 cell membranes). Conditions: without addition of PGD2; 100% of Emax being the activity measured by the addition of 1 μM of PGD2.
Type: biochemical
Experimental: as §1
The [^35S]GTPγS assay measures the increase in guanine nucleotide exchange at G-proteins in cell membranes, resulting from agonist (PGD2) binding to CRTH2. […] Briefly, Compounds of Formula (I) are incubated in 96-well scintillating white polystyrene plates (Perkin Elmer, USA) in a final volume of 200 μl containing 20 mM HEPES/KOH pH 7.4, 3 mM MgCl2, 10 μg/ml Saponin, 5 μM GDP, 75 mM NaCl and 2% of dimethylsulphoxide (DMSO). […] After 60 min incubation at 30° C., reaction is stopped by centrifugation at 700×g, at 4° C. for 10 minutes and supernatant is removed. […] For IC50 determination, increasing concentrations of compounds are incubated in presence of a fixed concentration of PGD2 (EC80). For EC50 measurements, compounds are incubated without addition of PGD2. Basal [^35S]GTPγS activity is determined without addition of any ligands or compounds. 100% [^35S]GTPγS activity is measured by the addition of 1 μM of PGD2.

Emax [%] | SMILES
-11.2 | CCC(=O)N(Cc1cccc(OC)c1)c1cc(F)cc(-c2nnn[nH]2)c1 [Example 39, N-[3-fluoro-5-(1H-tetrazol-5-yl)phenyl]-N-(3-methoxybenzyl)propanamide]
-17.1 | CCC(=O)N(Cc1cccc(O)c1)c1cc(F)cc(-c2nnn[nH]2)c1 [Example 84, N-[3-fluoro-5-(1H-tetrazol-5-yl)phenyl]-N-(3-hydroxybenzyl)propanamide]
-16.7 | CCC(=O)N(Cc1ccc(-c2c(C)cccc2C)cc1)c1cc(F)cc(-c2nnn[nH]2)c1 [Example 100]
